Experimental data reported in patent US10294234B2, “HIV inhibitor compounds” (priority 2017, dated 2019).
Read-outs that look alike come from different tables or passages of the source.

Columns and labels:
[1] = How it was run: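 Each compound (1 uM) is incubated in duplicate with 0.5 mg/mL liver microsomal protein from dog, rat or human plus NADPH-regenerating system. Samples taken at 2, 12, 25, 45 and 65 minutes are deproteinised and quantified by LC/MS/MS. Half-life gives Clint.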
[2] = test system: HIV-1 (IIIB) in MT-4 cells; test: MT-4 HIV assay; assay type: cell-based; conditions: Human immunodeficiency virus 1, MT4, 120 h
How it was run: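 Antiviral activity was read by Cell Titer Glo after a 5-day, 37 °C culture of MT-4 cells pre-infected with a 1:250 dilution of HIV-1 (IIIB). Compounds were tested as threefold dilution series in complete RPMI. Controls were no drug, mock infection and 5 uM AZT.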

[3] = HIV-1 (IIIB), MT-4 cells, 5 days, Cell Titer Glo, read-out: EC50
[4] = human liver microsomes 0.5 mg/mL, 1 uM compound, NADPH
[5] = rat liver microsomes 0.5 mg/mL, 1 uM compound, NADPH

SMILES | Human Pred Cl. ([1]; human, microsomes) | Rat. Pred. Cl. ([1]; rat, microsomes) | EC50 [2, 3] | Human Pred Cl. [1, 4] | Rat. Pred. Cl. [1, 5] | EC50 [2]
COC(=O)N[C@H](C(=O)NN(Cc1c(F)cc(-c2cn(C(F)F)cn2)cc1F)C[C@H](O)[C@H](Cc1ccc(C#Cc2ccc(N3CC4CCC(C3)N4C3COC3)nc2)cc1)NC(=O)[C@@H](NC(=O)OC)C(C)(C)C(F)(F)F)C(C)(C)C [Example 77, Methyl ((5S,8S,9S,14S)-11-(4-(1-(difluoromethyl)-1H-imidazol-4-yl)-2,6-difluorobenzyl)-9-hydroxy-15,15-dimethyl-8-(4-((6-(8-(oxetan-3-yl)-3,8-diazabicyclo [3.2.1]octan-3-yl)pyridin-3-yl)ethynyl)benzyl)-3,6,13-trioxo-5-(1,1,1-trifluoro-2-methylpropan-2-yl)-2-oxa-4,7,11,12-tetraazahexadecan-14-yl)carbamate] | <0.11 L/H/kg | 0.25 L/H/kg | 2.49 nM |  |  | 
COC(=O)N[C@H](C(=O)N[C@@H](Cc1ccc(C#Cc2ccc(N3CC4CCC(C3)N4C3COC3)nc2C)cc1)[C@@H](O)CN(Cc1c(F)cc(-c2ccccn2)cc1F)NC(=O)[C@@H](NC(=O)OC)C(C)(C)C(F)(F)F)C(C)(C)C(F)(F)F [Example 78, Methyl ((5S,8S,9S,14S)-11-(2,6-difluoro-4-(pyridin-2-yl)benzyl)-16,16,16-trifluoro-9-hydroxy-15,15-dimethyl-8-(4-((2-methyl-6-(8-(oxetan-3-yl)-3,8-diazabicyclo[3.2.1]octan-3-yl)pyridin-3-yl)ethynyl)benzyl)-3,6,13-trioxo-5-(1,1,1-trifluoro-2-methylpropan-2-yl)-2-oxa-4,7,11,12-tetraazahexadecan-14-yl)carbamate] | <0.11 L/H/kg | <0.18 L/H/kg | 6.27 nM |  |  | 
COC(=O)N[C@H](C(=O)N[C@@H](Cc1ccc(C#Cc2ccc(N3CCN(C)C(=O)C3)nc2)cc1)[C@@H](O)CN(Cc1c(F)cc(-c2ccn(C(F)F)n2)cc1F)NC(=O)[C@@H](NC(=O)OC)C(C)(C)C(F)(F)F)C(C)(C)C(F)(F)F [Example 81, Methyl ((5S,8S,9S,14S)-11-(4-(1-(difluoromethyl)-1H-pyrazol-3-yl)-2,6-difluorobenzyl)-16,16,16-trifluoro-9-hydroxy-15,15-dimethyl-8-(4-((6-(4-methyl-3-oxopiperazin-1-yl)pyridin-3-yl)ethynyl)benzyl)-3,6,13-trioxo-5-(1,1,1-trifluoro-2-methylpropan-2-yl)-2-oxa-4,7,11,12-tetraazahexadecan-14-yl)carbamate] |  |  |  | <0.11 L/H/kg | 0.39 L/H/kg | 4.39 nM
COC(=O)N[C@H](C(=O)N[C@@H](Cc1ccc(C#Cc2ccc(N3CC4CCC(C3)N4C3COC3)nc2)cc1)[C@@H](O)CN(Cc1c(F)cc(C2CCOCC2)cc1F)NC(=O)[C@@H](NC(=O)OC)C(C)(C)C(F)(F)F)C(C)(C)C(F)(F)F [Example 82, Methyl ((5S,8S,9S,14S)-11-(2,6-difluoro-4-(tetrahydro-2H-pyran-4-yl)benzyl)-16,16,16-trifluoro-9-hydroxy-15,15-dimethyl-8-(4-((6-(8-(oxetan-3-yl)-3,8-diazabicyclo[3.2.1]octan-3-yl)pyridin-3-yl)ethynyl)benzyl)-3,6,13-trioxo-5-(1,1,1-trifluoro-2-methylpropan-2-yl)-2-oxa-4,7,11,12-tetraazahexadecan-14-yl)carbamate] | 0.82 L/H/kg | 0.44 L/H/kg | 4.4 nM |  |  | 
COC(=O)N[C@H](C(=O)NN(Cc1ccc(-c2ccn(C(F)F)n2)cc1)C[C@H](O)[C@H](Cc1ccc(C#Cc2ccc(N3CC4CCC(C3)N4C3COC3)nc2)cc1)NC(=O)[C@@H](NC(=O)OC)C(C)(C)C(F)(F)F)C(C)(C)C [Example 85, Methyl ((5S,8S,9S,14S)-11-(4-(1-(difluoromethyl)-1H-pyrazol-3-yl)benzyl)-9-hydroxy-15,15-dimethyl-8-(4-((6-(8-(oxetan-3-yl)-3,8-diazabicyclo[3.2.1]octan-3-yl)pyridin-3-yl)ethynyl)benzyl)-3,6,13-trioxo-5-(1,1,1-trifluoro-2-methylpropan-2-yl)-2-oxa-4,7,11,12-tetraazahexadecan-14-yl)carbamate] | 0.13 L/H/kg | 0.19 L/H/kg | 3.78 nM |  |  | 
COC(=O)N[C@H](C(=O)NN(Cc1c(F)cc(-c2cnn(C(F)F)c2)cc1F)C[C@H](O)[C@H](Cc1ccc(C#Cc2ccc(N3CC4CCC(C3)N4C3COC3)nc2)cc1)NC(=O)[C@@H](NC(=O)OC)C(C)(C)C(F)(F)F)C(C)(C)C [Example 86, Methyl ((5S,8S,9S,14S)-11-(4-(1-(difluoromethyl)-1H-pyrazol-4-yl)-2,6-difluorobenzyl)-9-hydroxy-15,15-dimethyl-8-(4-((6-(8-(oxetan-3-yl)-3,8-diazabicyclo[3.2.1]octan-3-yl)pyridin-3-yl)ethynyl)benzyl)-3,6,13-trioxo-5-(1,1,1-trifluoro-2-methylpropan-2-yl)-2-oxa-4,7,11,12-tetraazahexadecan-14-yl)carbamate] | <0.11 L/H/kg | <0.18 L/H/kg | 2.61 nM |  |  | 
COC(=O)N[C@H](C(=O)N[C@@H](Cc1ccc(C#Cc2cnc(N3CCN(C4COC4)CC3)nc2)cc1)[C@@H](O)CN(Cc1c(F)cc(-c2ccn(C(F)F)n2)cc1F)NC(=O)[C@@H](NC(=O)OC)C(C)(C)C(F)(F)F)C(C)(C)C(F)(F)F [Example 87, methyl ((5S,8S,9S,14S)-11-(4-(1-(difluoromethyl)-1H-pyrazol-3-yl)-2,6-difluorobenzyl)-16,16,16-trifluoro-9-hydroxy-15,15-dimethyl-8-(4-((2-(4-(oxetan-3-yl)piperazin-1-yl)pyrimidin-5-yl)ethynyl)benzyl)-3,6,13-trioxo-5-(1,1,1-trifluoro-2-methylpropan-2-yl)-2-oxa-4,7,11,12-tetraazahexadecan-14-yl)carbamate] |  |  |  | 0.13 L/H/kg | 0.23 L/H/kg | 4.26 nM
COC(=O)N[C@H](C(=O)NN(Cc1c(F)cc(-c2ccn(C3CC3)n2)cc1F)C[C@H](O)[C@H](Cc1ccc(C#Cc2ccc(N3C[C@H]4C[C@@H]3CN4C3COC3)nc2)cc1)NC(=O)[C@@H](NC(=O)OC)C(C)(C)C(F)(F)F)C(C)(C)C [Example 90, Methyl ((5S,8S,9S,14S)-11-(4-(1-cyclopropyl-1H-pyrazol-3-yl)-2,6-difluorobenzyl)-9-hydroxy-15,15-dimethyl-8-(4-((6-((1R,4R)-5-(oxetan-3-yl)-2,5-diazabicyclo[2.2.1]heptan-2-yl)pyridin-3-yl)ethynyl)benzyl)-3,6,13-trioxo-5-(1,1,1-trifluoro-2-methylpropan-2-yl)-2-oxa-4,7,11,12-tetraazahexadecan-14-yl)carbamate] |  |  |  | 0.14 L/H/kg | 0.67 L/H/kg | 3.45 nM
COC(=O)N[C@H](C(=O)N[C@@H](Cc1ccc(C#Cc2ccc(N3C[C@H]4C[C@@H]3CN4C3COC3)nc2)cc1)[C@@H](O)CN(Cc1c(F)cc(-c2ncccn2)cc1F)NC(=O)[C@@H](NC(=O)OC)C(C)(C)C(F)(F)F)C(C)(C)C(F)(F)F [Example 93, Methyl ((5S,8S,9S,14S)-11-(2,6-difluoro-4-(pyrimidin-2-yl)benzyl)-16,16,16-trifluoro-9-hydroxy-15,15-dimethyl-8-(4-((6-((1R,4R)-5-(oxetan-3-yl)-2,5-diazabicyclo[2.2.1]heptan-2-yl)pyridin-3-yl)ethynyl)benzyl)-3,6,13-trioxo-5-(1,1,1-trifluoro-2-methylpropan-2-yl)-2-oxa-4,7,11,12-tetraazahexadecan-14-yl)carbamate] |  |  | 2.49 nM | 0.19 L/H/kg | 1.13 L/H/kg | 
COC(=O)N[C@H](C(=O)NN(Cc1c(F)cc(-c2ncccn2)cc1F)C[C@H](O)[C@H](Cc1ccc(C#Cc2ccc(N3C[C@H]4C[C@@H]3CN4C3COC3)nc2)cc1)NC(=O)[C@@H](NC(=O)OC)C(C)(C)C(F)(F)F)C(C)(C)C [Example 95] |  |  |  | 0.38 L/H/kg | 1.39 L/H/kg | 2.44 nM
COC(=O)N[C@H](C(=O)N[C@@H](Cc1ccc(C#Cc2ccc(N3CCN(C4COC4)CC3)nc2)cc1)[C@@H](O)CN(Cc1c(F)cc(-c2ccc(F)cn2)cc1F)NC(=O)[C@@H](NC(=O)OC)C(C)(C)C(F)(F)F)C(C)(C)C(F)(F)F [Example 97, Methyl ((5S,8S,9S,14S)-11-(2,6-difluoro-4-(5-fluoropyridin-2-yl)benzyl)-16,16,16-trifluoro-9-hydroxy-15,15-dimethyl-8-(4-((6-(4-(oxetan-3-yl)piperazin-1-yl)pyridin-3-yl)ethynyl)benzyl)-3,6,13-trioxo-5-(1,1,1-trifluoro-2-methylpropan-2-yl)-2-oxa-4,7,11,12-tetraazahexadecan-14-yl)carbamate] |  |  |  | 0.46 L/H/kg | 0.31 L/H/kg | 4.54 nM
COC(=O)N[C@H](C(=O)N[C@@H](Cc1ccc(C#Cc2ccc(N3CCN(C4COC4)CC3)nc2)cc1)[C@@H](O)CN(Cc1c(F)cc(-c2cc(F)ccn2)cc1F)NC(=O)[C@@H](NC(=O)OC)C(C)(C)C(F)(F)F)C(C)(C)C(F)(F)F [Example 98, Methyl ((5S,8S,9S,14S)-11-(2,6-difluoro-4-(4-fluoropyridin-2-yl)benzyl)-16,16,16-trifluoro-9-hydroxy-15,15-dimethyl-8-(4-((6-(4-(oxetan-3-yl)piperazin-1-yl)pyridin-3-yl)ethynyl)benzyl)-3,6,13-trioxo-5-(1,1,1-trifluoro-2-methylpropan-2-yl)-2-oxa-4,7,11,12-tetraazahexadecan-14-yl)carbamate] |  |  | 4.97 nM | 0.26 L/H/kg | 0.65 L/H/kg | 
